“Also recorded” adds a separate entry of the source. Square brackets hold non-standard residues; d marks the D form. Peptide text beside a SMILES is read from it.
Columns and labels:
Type in all cases: cell-based, human
[1] = test system: FAPs from M^CT, FibM^CT and FibM^OP; assay: COL7A1 immunostaining as a readout of ECM production in FAPs treated with ET-1 +/- antagonist; settings: 3 days
Excerpt: (§1) Human FAPs cells were isolated from muscle biopsies obtained during surgical procedures via Myobank, affiliated to EuroBioBank, after informed consent in accordance with European recommendations and French legislation (authorization AC-2019-3502). Human FAPs isolated here as the CD56 negative cell fraction (Périé, S. et al. 2006), are obtained from control skeletal muscle: M^CT, control fibrotic cricopharyngeal muscle (CPM): FibM^CT, OPMD fibrotic CPM with exacerbated levels of fibrosis: FibM^OP, and fibrotic muscle from inclusion body myositis patients: FibM^IBM. All tested fibrotic muscle are skeletal fibrotic muscle. These cells expressed predominantly PDGFRa, CD90 and CD105 known markers of Fibro/Adipogenic Progenitors (FAPs) in human skeletal muscle. The tissue type, cell type, age, pathological condition and muscle fibrotic state of each biopsy sample are specified in table below.
(§2) The muscle biopsies were finely minced and explants were plated onto non-coated Petri dishes in drops of fetal bovine serum (FBS) (Invitrogen, Carlsbad, CA) as previously described (Bigot et al., 2009). Cells were cultivated at 37° C. in a humid atmosphere containing 5% CO2 and in growth medium consisting of 199 medium (Life technologies, Paisley, UK) and Dulbecco's Modified Eagle Medium (DMEM, Life technologies) in a 1:4 ratio supplemented with 20% Fetal Bovine Serum (FBS, Invitrogen), 25 μg/ml fetuin (Life technologies), 0.5 ng/mL bFGF (Life technologies), 5 ng/ml EGF (Life technologies), 5 μg/mL insulin (Sigma-Aldrich) and 50 μg/mL gentamycin (Life Technologies). Cells were labelled with CD56 antibody coupled to microbeads (130-050-401, MACS; Miltenyi Biotec, Paris, France) and then separated using a immunomagnetic cell sorting system (MACS) according to the manufacturer's instructions. The myogenic purity of both cell fractions (CD56+, myogenic and CD56−, non-myogenic) was monitored by immunocytochemistry using an antibody against desmin (clone D33, Dako, Trappes, France), exclusively expressed in myogenic cells.
The method for quantification of ET-1 protein is described in Le Bihan et al. 2012. Treatment of FAPs to evaluate the effect of ET-1 was performed on 70-80% confluence cells that were rinsed twice with DMEM and treated 3 days with proliferation medium at 1% FBS (instead of 20%) containing either DMSO or 40 nM ET-1 (E7764, Sigma-Aldrich)+/−10 μM Bosentan (SML1265, Sigma Aldrich), 10 nM BQ788 (SML192621, Sigma Aldrich), or 10 nM BQ123 (B150, Sigma-Aldrich). For proliferation experiment, Edu (10 μM) was added at day 2 and cells were fixed 24 h later. EdU labeling was carried out using the Click-iT™ EdU Cell Proliferation Kit (C10338, Life Technologies) according to the manufacturer's instructions. […]

[2] = test system: FAPs from M^CT, FibM^CT and FibM^OP; assay: Edu proliferation of FAPs treated with ET-1 +/- antagonist; settings: 3 days
Excerpt: as §1
as §2, with “Cells were labelled with CD56 antibody coupled to microbeads (130-050-401, MACS; Miltenyi Biotec, Paris, France) and then separated using a immunomagnetic cell sorting system (MACS) according to the manufacturer's instructions.” left out
The method for quantification of ET-1 protein is described in Le Bihan et al. 2012. […]

[3] = test system: myoblast cocultured with FAPs from FibM^OP; assay: Coculture of myoblasts with FAPs from fibrotic muscle, fusion index; settings: Bosentan 10 μM added at day 0 and day 3, fixed at day 5, myoblasts/FAPs 70%/30%
Experimental: Non-myogenic (CD56-) and myogenic (CD56+) cells were seeded together at a 30%/70% ratio and at a final confluence of 21000 cells/cm2. Once the cells have adhered, the medium was replaced by a differentiation medium composed by DMEM with 50 μg/mL gentamycin. To study the effect of Bosentan on the fusion index in coculture 10 μM of Bosentan (SML1265, Sigma Aldrich) was added to the wells at day 0 and day 3. Cells were fixed at day 5 in 4% paraformaldehyde (PFA). The fusion index was calculated as the ratio between the number of nuclei per myotube (>2 nuclei) identified by a desmin staining and the total number of desmin+nuclei. Immunostaining were performed on cells fixed in 4% PFA for 10 minutes (min) and incubated with blocking solution (PBS 2% FBS 0.2% Triton) for 30 minutes (min). Fixed cells were then incubated 1 h with primary antibodies (COL7A1 […] Sigma Aldrich 1/800; Desmin […] Dako 1/50). Detection of immune complexes was performed using the appropriate Alexa-Fluor-secondary antibodies purchased from Life Technologies (Grand Island, NY) for 45 min. Nuclei and actin filament were counterstained with Hoechst and Phalloidin-Alexa 568 (Interchim 1/400) respectively.

In the case of `CC(C)C[C@@H]1NC(=O)[C@@H](C(C)C)NC(=O)[C@@H]2CCCN2C(=O)[C@@H](CC(=O)O)NC(=O)[C@@H](Cc2c[nH]c3ccccc23)NC1=O` [BQ123] (cyclo(L[dW][dD]P[dV])), the “ECM production (percentage of COL7A1 positive cells)” value ([1]; ET-1 40 nM + antagonist 10 nM) is reported as “decrease of ECM production”.

With `CCCC[C@@H](NC(=O)[C@@H](Cc1cn(C(=O)OC)c2ccccc12)NC(=O)[C@H](CC(C)(C)C)NC(=O)N1[C@H](C)CCC[C@@H]1C)C(=O)O` [BQ788] the “ECM production (percentage of COL7A1 positive cells)” value ([1]; ET-1 40 nM + antagonist 10 nM) was “decrease of ECM production” and the “proliferation (percentage of Edu positive cells)” value ([2]; ET-1 40 nM + BQ788 10 nM) was “decrease of proliferation”.

With `COc1ccccc1Oc1c(NS(=O)(=O)c2ccc(C(C)(C)C)cc2)nc(-c2ncccn2)nc1OCCO` [Bosentan] the “ECM production (percentage of COL7A1 positive cells)” value ([1]; ET-1 40 nM + Bosentan 10 μM) was “partially abolished the effect of ET1”, the “proliferation (percentage of Edu positive cells)” value ([2]; ET-1 40 nM + Bosentan 10 μM) was “partially abolished the effect of ET1; also recorded: decrease of proliferation” and the fusion index [3] was “partially restored to control levels”.

For `CC[C@H](C)[C@H](NC(=O)[C@H](CC(=O)O)NC(=O)[C@H](CC(C)C)NC(=O)[C@H](Cc1c[nH]cn1)NC(=O)[C@@H]1CSSC[C@H](N)C(=O)N[C@@H](CO)C(=O)N[C@H]2CSSC[C@H](NC(=O)[C@H](CCC(=O)O)NC(=O)[C@H](CCCCN)NC(=O)[C@H](CC(=O)O)NC(=O)[C@H](CCSC)NC(=O)[C@H](CC(C)C)NC(=O)[C@H](CO)NC(=O)[C@H](CO)NC2=O)C(=O)N[C@@H](C(C)C)C(=O)N[C@@H](Cc2ccc(O)cc2)C(=O)N[C@@H](Cc2ccccc2)C(=O)N1)C(=O)N[C@H](C(=O)N[C@@H](Cc1c[nH]c2ccccc12)C(=O)O)[C@@H](C)CC` [ET1], the “ECM production (percentage of COL7A1 positive cells)” value ([1]; ET-1 40 nM, vs DMSO) was “increased” and the “proliferation (percentage of Edu positive cells)” value ([2]; ET-1 40 nM, vs DMSO) was “increased”.
